This is an account of results in patent publication US10954252B1, “Inhibitors of human immunodeficiency virus replication” (ViiV HEALTHCARE UK (NO.5) LIMITED, priority 2017, dated 2021).

In data set [1] the test system is recombinant NL4-3 virus (nef section replaced with Renilla luciferase gene) in MT-2 cells. Put plainly: HIV cell culture assay (antiviral activity, luciferase readout). The format is cell-based. The note with it: MT-2 cells infected for 4-5 days with recombinant NL4-3 luciferase virus. The method in brief: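 NL4-3 reporter virus carrying Renilla luciferase in place of part of nef, produced in 293T cells, was used to infect MT-2 cells for 4-5 days with serial compound dilutions. Luciferase activity was read with a live-cell substrate; EC50 derived from the median effect equation.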

Data set [2] deals with uninfected MT2 cells. Put plainly: Compound cytotoxicity, XTT-based colorimetric assay. The data set is classed as cell-based. The method, boiled down:
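CC50 from uninfected MT2 cells run under the antiviral-assay protocol without virus. Viability read on day 4 by XTT colorimetric assay.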

The structures appear in SMILES notation. pEC50: −log10 of the molar value. A value given as a limit tells only on which side of the number the result lay.

Regarding `Cn1nc(NS(C)(=O)=O)c2c(Cl)ccc(-n3c([C@H](Cc4cc(F)cc(F)c4)NC(=O)Cn4nc(C(F)F)c5c4C(F)(F)[C@@H]4C[C@H]54)nc4cc(CS(C)(=O)=O)ccc4c3=O)c21` (mixture of isomers) [Example 202, N—((S)-1-(3-(4-chloro-1-methyl-3-(methylsulfonamido)-1H-indazol-7-yl)-7-((methylsulfonyl)methyl)-4-oxo-3,4-dihydroquinazolin-2-yl)-2-(3,5-difluorophenyl)ethyl)-2-((3bS,4aR)-3-(difluoromethyl)-5,5-difluoro-3b,4,4a,5-tetrahydro-1H-cyclopropa[3,4]cyclopenta[1,2-c]pyrazol-1-yl)acetamide], the pEC50 in data set [1] (Table 1a) is 9.52. Moreover, the CC50 in data set [2] (Table 1a, day 4, XTT) was > 1000 nM.
On to `Cn1nc(NS(C)(=O)=O)c2c(Cl)ccc(-n3c([C@H](Cc4cc(F)cc(F)c4)NC(=O)Cn4nc(C(F)F)c5c4C(F)(F)[C@@H]4C[C@H]54)nc4cc(C(C)(C)S(C)(=O)=O)ccc4c3=O)c21` (mixture of isomers) [Example 208, N—((S)-1-(3-(4-chloro-1-methyl-3-(methylsulfonamido)-1H-indazol-7-yl)-7-(2-(methylsulfonyl)propan-2-yl)-4-oxo-3,4-dihydroquinazolin-2-yl)-2-(3,5-difluorophenyl)ethyl)-2-((3bS,4aR)-3-(difluoromethyl)-5,5-difluoro-3b,4,4a,5-tetrahydro-1H-cyclopropa[3,4]cyclopenta[1,2-c]pyrazol-1-yl)acetamide], for which, in data set [1] (Table 1a), the negative logarithm of the EC50 (pEC50) is 10.08. Also, in data set [2] (Table 1a, day 4, XTT), the 50% cytotoxic concentration (CC50) was > 1000 nM.
`Cn1nc(NS(C)(=O)=O)c2c(Cl)ccc(-n3c([C@H](Cc4cc(F)cc(F)c4)NC(=O)Cn4nc(C(F)F)c5c4C(F)(F)[C@@H]4C[C@H]54)nc4cc(C(C)(C)C)ccc4c3=O)c21` (mixture of isomers) [Example 216, N—((S)-1-(7-(tert-Butyl)-3-(4-chloro-1-methyl-3-(methylsulfonamido)-1H-indazol-7-yl)-4-oxo-3,4-dihydroquinazolin-2-yl)-2-(3,5-difluorophenyl)ethyl)-2-((3bS,4aR)-3-(difluoromethyl)-5,5-difluoro-3b,4,4a,5-tetrahydro-1H-cyclopropa[3,4]cyclopenta[1,2-c]pyrazol-1-yl)acetamide]: the negative logarithm of the EC50 (pEC50) in data set [1] (Table 1a) is 10.23. Further, the CC50 in data set [2] (Table 1a, day 4, XTT) is > 1000 nM.
In the case of `O=C(Cn1nc(C(F)F)c2c1C(F)(F)[C@@H]1C[C@H]21)NC(Cc1cc(F)cc(F)c1)c1nc2ncsc2cc1-c1ccc2scnc2c1` (single isomer, unassigned) [Example 1.1], the pEC50 in data set [1] (Table 1) was 8.51. In data set [2] (Table 1, day 4, XTT), the CC50 is > 100000 nM.
On the same counts, the results for `O=C(Cn1nc(C(F)F)c2c1C(F)(F)[C@@H]1C[C@H]21)NC(Cc1cc(F)cc(F)c1)c1nc2ncsc2cc1-c1ccc2scnc2c1` (single isomer, unassigned) [Example 1.2] are 5.55 and > 33300 nM.
In the same order, the values of `Cn1nc(NS(C)(=O)=O)c2c(Cl)ccc(-c3cc4scnc4nc3C(Cc3cc(F)cc(F)c3)NC(=O)Cn3nc(C(F)F)c4c3C(F)(F)[C@@H]3C[C@H]43)c21` (single isomer, unassigned) [Example 1.3] are 9.52 and > 10000 nM.
On the same counts, the results for `Cn1nc(NS(C)(=O)=O)c2c(Cl)ccc(-c3cc4scnc4nc3C(Cc3cc(F)cc(F)c3)NC(=O)Cn3nc(C(F)F)c4c3C(F)(F)[C@@H]3C[C@H]43)c21` (single isomer, unassigned) [Example 1.5] are 5.94 and > 10000 nM.
As for `Cn1nc(NS(C)(=O)=O)c2c(Cl)ccc(-c3cc4scnc4nc3C(Cc3cc(F)cc(F)c3)NC(=O)Cn3nc(C(F)F)c4c3C(F)(F)[C@@H]3C[C@H]43)c21` (single isomer, unassigned) [Example 1.6], the pEC50 in data set [1] (Table 1) was 5.75. In addition, the CC50 in data set [2] (Table 1, day 4, XTT) is > 10000 nM.
On the same counts, the results for `Cc1nc2nc(C(Cc3cc(F)cc(F)c3)NC(=O)Cn3nc(C(F)F)c4c3C(F)(F)[C@@H]3C[C@H]43)c(-c3ccc(Cl)c4c(NS(C)(=O)=O)nn(C)c34)cc2s1` (single isomer, unassigned) [Example 2.2] are 5.94 and > 10000 nM.
In the same order, the values of `Cc1nc2nc(C(Cc3cc(F)cc(F)c3)NC(=O)Cn3nc(C(F)F)c4c3CCC4)c(-c3ccc(Cl)c4c(NS(C)(=O)=O)nn(C)c34)cc2s1` (single isomer, unassigned) [Example 2.4, N-(1-(6-(4-chloro-1-methyl-3-(methylsulfonamido)-1H-indazol-7-yl)-2-methylthiazolo[4,5-b]pyridin-5-yl)-2-(3,5-difluorophenyl)ethyl)-2-(3-(difluoromethyl)-5,6-dihydrocyclopenta[c]pyrazol-1(4H)-yl)acetamide] are 6.16 and > 10000 nM.
In the same order, the values of `O=C(Cn1nc(C(F)F)c2c1C(F)(F)[C@@H]1C[C@H]21)N[C@H](Cc1cc(F)cc(F)c1)c1nc2cn[nH]c2cc1-c1ccc2scnc2c1` (single isomer, unassigned) [Example 3.1] are 7.66 and 42100 nM.
As for `O=C(Cn1nc(C(F)F)c2c1C(F)(F)[C@@H]1C[C@H]21)N[C@H](Cc1cc(F)cc(F)c1)c1nc2cn[nH]c2cc1-c1ccc2scnc2c1` (single isomer, unassigned) [Example 3.2], the pEC50 in data set [1] (Table 1) is 6.02. Also, the CC50 in data set [2] (Table 1, day 4, XTT) turned out to be 12700 nM.
In the same order, the values of `O=C(Cc1c[nH]c2ccc(O)cc12)NC(Cc1cc(F)cc(F)c1)c1nc2cn[nH]c2cc1-c1ccc2scnc2c1` (single isomer, unassigned) [Example 3.4, N-(1-(6-(benzo[d]thiazol-5-yl)-1H-pyrazolo[4,3-b]pyridin-5-yl)-2-(3,5-difluorophenyl)ethyl)-2-(5-hydroxy-1H-indol-3-yl)acetamide] are 6.33 and 83900 nM.
On the same counts, the results for `O=C(Cc1c[nH]c2ccc(F)cc12)NC(Cc1cc(F)cc(F)c1)c1nc2cn[nH]c2cc1-c1ccc2scnc2c1` (single isomer, unassigned) [Example 3.6, N-(1-(6-(benzo[d]thiazol-5-yl)-1H-pyrazolo[4,3-b]pyridin-5-yl)-2-(3,5-difluorophenyl)ethyl)-2-(5-fluoro-1H-indol-3-yl)acetamide] are 6.64 and 32600 nM.
In the same order, the values of `Cn1nc(NS(C)(=O)=O)c2c(Cl)ccc(-c3cc4[nH]cnc4nc3C(Cc3cc(F)cc(F)c3)NC(=O)Cn3nc(C(F)F)c4c3C(F)(F)[C@@H]3C[C@H]43)c21` (single isomer, unassigned) [Example 4.2] are 9.00 and > 10000 nM.
Turning to `Cn1nc(NS(C)(=O)=O)c2c(Cl)ccc(-c3cc4[nH]ccc4nc3C(Cc3cc(F)cc(F)c3)NC(=O)Cn3nc(C(F)F)c4c3C(F)(F)[C@@H]3C[C@H]43)c21` (single isomer, unassigned) [Example 5.2], the negative-log EC50 (pEC50) in data set [1] (Table 1) is 6.40. Also, the CC50 in data set [2] (Table 1, day 4, XTT) is > 10000 nM.
On the same counts, the results for `Cn1nc(NS(C)(=O)=O)c2c(Cl)ccc(-c3cc4[nH]ccc4nc3C(Cc3cc(F)cc(F)c3)NC(=O)Cn3nc(C(F)F)c4c3C(F)(F)[C@@H]3C[C@H]43)c21` (single isomer, unassigned) [Example 5.3] are 9.70 and > 10000 nM.
In the same order, the values of `Cn1nc(NS(C)(=O)=O)c2c(Cl)ccc(-c3cc4[nH]ccc4nc3C(Cc3cc(F)cc(F)c3)NC(=O)Cn3nc(C(F)F)c4c3C(F)(F)[C@@H]3C[C@H]43)c21` (single isomer, unassigned) [Example 5.4] are 9.70 and > 10000 nM.
With `Cn1nc(NS(C)(=O)=O)c2c(Cl)ccc(-c3cc4cn[nH]c4nc3C(Cc3cc(F)cc(F)c3)NC(=O)Cn3nc(C(F)F)c4c3C(F)(F)[C@@H]3C[C@H]43)c21` (single isomer, unassigned) [Example 6.2], in data set [1] (Table 1), the pEC50 was 8.37. Besides, the CC50 in data set [2] (Table 1, day 4, XTT) was > 10000 nM.
Regarding `O=C(Cn1nc(C(F)F)c2c1C(F)(F)[C@@H]1C[C@H]21)NC(Cc1cc(F)cc(F)c1)c1ncc2nc[nH]c2c1-c1ccc2scnc2c1` (single isomer, unassigned) [Example 7.2], in data set [1] (Table 1), the pEC50 was 8.05. Also, the midpoint of cytotoxicity in data set [2] (Table 1, day 4, XTT), the CC50, lay at 17500 nM.
`Cn1nc(NS(C)(=O)=O)c2c(Cl)ccc(-c3c(C(Cc4cc(F)cc(F)c4)NC(=O)Cn4nc(C(F)F)c5c4C(F)(F)[C@@H]4C[C@H]54)ncc4[nH]cnc34)c21` (single isomer, unassigned) [Example 7.4]: the pEC50 in data set [1] (Table 1) was 6.52. In data set [2] (Table 1, day 4, XTT), the CC50 is > 10000 nM.
On the same counts, the results for `Cn1nc(NS(C)(=O)=O)c2c(Cl)ccc(-c3c(C(Cc4cc(F)cc(F)c4)NC(=O)Cn4nc(C(F)F)c5c4C(F)(F)[C@@H]4C[C@H]54)ncc4[nH]cnc34)c21` (single isomer, unassigned) [Example 7.5] are 5.88 and > 10000 nM.
On the same counts, the results for `Cn1nc(NS(C)(=O)=O)c2c(Cl)ccc(-c3c(C(Cc4cc(F)cc(F)c4)NC(=O)Cn4nc(C(F)F)c5c4C(F)(F)[C@@H]4C[C@H]54)ncc4[nH]cnc34)c21` (single isomer, unassigned) [Example 7.6] are 8.09 and > 10000 nM.
For the molecule `Cn1nc(NS(C)(=O)=O)c2c(Cl)ccc(-c3cc4ccccc4nc3C(Cc3cc(F)cc(F)c3)NC(=O)Cn3nc(C(F)F)c4c3C(F)(F)[C@@H]3C[C@H]43)c21` (single isomer, unassigned) [Example 8.2], in data set [1] (Table 1), the pEC50 was 6.74. Also, the CC50 in data set [2] (Table 1, day 4, XTT) was > 10000 nM.
Regarding `Cn1nc(NS(C)(=O)=O)c2c(Cl)ccc(-n3c([C@H](Cc4cc(F)cc(F)c4)NC(=O)Cn4nc(C(F)F)c5c4C(F)(F)[C@@H]4C[C@H]54)nc4ncccc4c3=O)c21` (single isomer, unassigned) [Example 10.40], the pEC50 in data set [1] (Table 1) was 10.72. In addition, the CC50 in data set [2] (Table 1, day 4, XTT) was > 10000 nM.
With `Cc1ccn(CC(=O)N[C@@H](Cc2cc(F)cc(F)c2)c2nc3ncccc3c(=O)n2-c2ccc(Cl)c3c(NS(C)(=O)=O)nn(C)c23)n1` (single isomer, unassigned) [Example 47.2], the negative logarithm of the EC50 (pEC50) in data set [1] (Table 1a) is 8.77. Also, in data set [2] (Table 1a, day 4, XTT), the CC50 was > 1000 nM.

The pEC50 is the negative decadic logarithm of the EC50, by convention in mol/L. One may read the CC50 as the concentration giving 50% cytotoxicity. Read a low CC50 as greater toxicity to the cells.
